Structures are written as SMILES. Entries after “also recorded” stand apart in the source; their conditions may differ.

Here are results for 3 molecules from patent US9757350B2, “Small molecule inhibitors of replication protein A that also act synergistically with cisplatin” (Indiana University Research and Technology Corp., priority 2010, dated 2017).

The target of assay [1] is T1, full-length heterotrimeric RPA (Homo sapiens, UniProt P27694).
T1 construct: Human full-length, un-tagged heterotrimeric RPA (RPA) was purified as previously describe; made in house
In words: EMSA in vitro DNA binding assay, full-length heterotrimeric RPA. The settings on record: ssDNA substrate. How it is done:
RPA. Human full-length, un-tagged heterotrimeric RPA (RPA) was purified as previously describe.
RPA and DBD-A/B Binding. EMSAs were performed as previously described (22) using a 30-base purine rich ssDNA substrate (3Pc3). Briefly, reactions contained 12.5 nM 5′-[^32P]-labeled 3Pc3 ssDNA and the indicated concentrations of RPA or DBD-A/B. Protein was pre-incubated with the indicated concentration of SMI for 30 minutes at 37° C. DNA was then added and reactions incubated for an additional 5 minutes at room temperature in a final reaction volume of 40 μL. Reactions were then resolved on a 6% native polyacrylamide gel and electrophoresed at 170 volts for 1 hour. Gels were dried and quantified via phosphorimager analysis and ImageQuant software (Molecular Dynamics).

Assay [2] addresses T2, RPA DBD-A/B (Homo sapiens, UniProt P27694).
T2 construct: made in house; host or cells: E. coli BL21(DE3)
The assay is described as follows: EMSA DNA binding assay, RPA DBD-A/B construct. On the procedure: DBD-A/B. The sequence encoding the RPA p70 DNA binding domains A and B were subcloned from the hrRPA plasmid (provided by Dr. Marc Wold, University of Iowa) into the pET15b (Novagen) vector and the protein was expressed in BL21(DE3) cells (Stratagene) as previously described. Briefly, cells were grown to an OD600 of 0.8, induced with 0.5 mM isopropyl-1-thio-β-D-galactopyranoside (IPTG) at 37° C. for 2-3 hours. Small scale DBD-A/B preparations were obtained from 1 L cultures and following induction, cells were harvested by centrifugation at 700×g for 30 minutes at 4° C. The pellets were suspended in Buffer A (20 mM Tris, pH 7.5, 10% glycerol, 500 mM NaCl, 10 mM β-mercaptoethanol (BME) and 1 μg/mL phenylmethanesulfonylfluoride (PMSF), leupeptin and pepstatin) at 1 mL/gram of cells. The cells were lysed by sonication and insoluble material sedimented at 15,000×g for 30 minutes at 4° C. The supernatant was then loaded onto a 10 mL phosphocellulose column, equilibrated with Buffer A, and the flow-through material collected. Imidazole was added to 5 mM to the flow through which was then loaded onto a 2 mL nickel-NTA-agarose column. The column was then washed with Buffer A containing 50 mM imidazole after which protein was eluted from the column using a gradient from 50-500 mM imidazole. Fractions were analyzed for protein content using Bradford and SDS-PAGE analysis in addition to assessment of DNA binding activity as determined by anisotropy. Fractions containing the DBD-A/B protein were pooled and dialyzed overnight in Buffer B (1 mM HEPES, pH 7.2, 10 mM dithiothreitol (DTT), 50 mM NaCl and 1 μg/mL PMSF, pepstatin and leupeptin) and aliquots stored at −80° C.
RPA and DBD-A/B Binding. EMSAs were performed as previously described (22) using a 30-base purine rich ssDNA substrate (3Pc3). […] Gels were dried and quantified via phosphorimager analysis and ImageQuant software (Molecular Dynamics).
For orientation: A gel shift assay detects complexes by their altered migration in electrophoresis.

In assay [3] the target is T2, RPA DBD-A/B. In words: Reversibility of DBD-A/B inhibition: dialysis, then fluorescence polarization. Format: binding. The following applies: overnight dialysis, then FP with F-dT12. On the procedure: In an experiment reported herein, DBD-A/B was incubated with CheSS19 and then the reaction mix dialyzed overnight to remove dissociable inhibitor. […] Referring now to FIG. 3D. Bar graph showing results of fluorescence polarization analysis of CheSS19 inactivated RPA DBD-A/B. Referring now to FIG. 3D, RPA DBD-A/B was pre-incubated with vehicle (1% DMSO) or CheSS19 (1 pmol in 1% DMSO) for 30 minutes at 37° C. Following incubation, the reaction mix was dialyzed versus H1 buffer overnight at 4° C. The protein was recovered and DNA binding activity measured by FP analysis of binding to an F-dT12 substrate was performed as described in “Methods”. Bar 1, DNA control, Bar 2, control vehicle treated DBD-A/B, Bar 3, Chess19 treated DBD-A/B. The data represent the mean and range of two independent experiments.
Fluorescence polarization experiments were preformed as previously described (21). SMIs were diluted in H1 buffer (10 mM HEPES, pH 7.2, 1 mM DTT, 0.01% NP-40 and 100 mM NaCl) and the final DMSO concentration was kept below 1%.
In order to assess the reversibility of select SMIs, the indicated SMI was pre-incubated with RPA or the DBD-A/B construct for 30 minutes at room temperature. […] The resulting protein was recovered and concentration determined by Bradford analysis. […]
A general note: Polarisation of emitted light reports the rotation of a fluorescent probe.

A further assay concerns the target T3, EcSSB (Escherichia coli, UniProt P0AGE0).
T3 construct: purchased Enzymatics, Beverly, Mass
The assay is described as follows: E. coli SSB DNA-binding EMSA. The following applies: 0-200 μM, pre-incubated with protein. How it is done:
In order to study the specificity of the CheSS19, and MCI13E/F compounds, their effects on two ssDNA binding proteins which use OB-folds for recognition and binding of ssDNA, E. coli SSB (6) and the Schizosaccharomyces pombe Pot1(DBD) domain (11) were studied. The EcSSB protein is a non-sequence-specific ssDNA binding protein, whereas the SpPot1(DBD) protein is a telomere-specific, ssDNA binding protein. In these experiments, protein was pre-incubated with the SMIs, as was done for the RPA experiments, prior to addition of radiolabeled ssDNA to the reactions.
Referring now to FIG. 6B. CheSS19 titration in EcSSB DNA-binding reactions. CheSS19 (0, 25, 50, 100, and 200 μM) was pre-incubated with EcSSB and binding reactions were carried out. Referring now to FIG. 6C. Titration of MCI13E and MCI13F in EcSSB DNA-binding reactions. Concentrations of MCI13E/F used were: 0, 25, 50, 100, and 200 μM. In all panels, the ‘Free’ ssDNA is indicated with an arrow and the ‘Bound’ ssDNA is indicated by brackets. All reactions were performed in the same order and manner as the RPA binding reactions. EcSSB binding was unaffected by CheSS19 and the MCI13E and MCI13F compounds […].
EMSAs were performed similarly to those for the RPA constructs, with the following exceptions. Reactions contained 25 nM of 5′-[^32P]-labeled 3Pc3 ssDNA and 3.3 nM (assuming homotetramer formation) SSB protein (Enzymatics, Beverly, Mass.). Reactions (20 μL) were carried out in 20 mM HEPES, pH 7.5, 1 mM DTT, 0.01% NP-40, 100 mM NaCl, and resolved by 6% native polyacrylamide gel electrophoresis at 25 mA for 2 hours. Gels were dried and quantified via phosphorimager analysis and ImageQuant software (Molecular Dynamics).

The target in assay [4] is T1, full-length heterotrimeric RPA. The following applies: reference 9; cited from earlier work.
In assay [5] the test system is NSCLC cell lines A549 and H460. The following applies: reference 1; cited from earlier work.
The subject of the next assay is p21. The assay is described as follows: Quantitative real-time PCR of p21 mRNA. The settings on record: A549, versus untreated control. The format is cell-based. How it is done:
Real-Time PCR—A549 cells were plated in 10 cm dishes at 1.5×10^6, allowed to adhere, and treated for 24-48 hours with cisplatin or SMIs (5 μM). Referring now to FIG. 16B, Western blot of cells treated sequentially. For sequential treatment, A549 cells were exposed to cisplatin for 24 hours followed by the addition of SMIs for another 24 hours as above. Referring now to FIG. 16A, A549 cells were treated sequentially or concurrently with cisplatin (5 μM) and MCI13E or MCI13F for 24 total hours. Lysates were probed for p53-ser15-phosphorylation or phosphorylated-ATM. GAPDH was probed as a loading control. Concurrently treated cells were incubated simultaneously with both cisplatin and MCIs for 24 hours. RNA was extracted using RNeasy minikit (Qiagen, Germantown, Md.) per manufacturer's protocol. cDNA was generated using Applied Biosystem's (ABI) High Capacity RNA-to-cDNA kit. Validated gene primer/probe sets, also from ABI, were used for Quantitative Real Time-PCR. ABI's ΔΔCT Relative Quantification methodology was used for the analyses (applied Biosystems). Data were normalized to the housekeeping gene GAPDH and calibrated to the mock treated samples. Results presented are the average of two separate cell treatments/RNA isolations with duplicate Taqman Assays per RNA sample set.
Referring now to FIG. 15A. Plot of Quantitative Real Time PCR analyses of mRNA expression changes of A549 cells treated with MCI13E, MCI13F and Cisplatin. Data represents the average of four separate Q-RT PCR Assays. Genes of interest were normalized to GAPDH transcript levels, and are presented as fold changes relative to untreated cell samples. Cisplatin treatment increases transcription of DDB2 (A). Referring now to FIG. 15B. Bar graph of P21/GAPDH measured in cells subjected to different treatment schemes. Referring now to FIG. 15C. Bar graph of XPC/GAPDH measured under different treatment regimes XPC Concurrent MCI/Cisplatin treated cells show a decrease in gene transcription when compared to cells treated with Cisplatin alone (24 hour).
(Real-time PCR tracks product formation cycle by cycle.)

T2 sequence (P27694 181-422 limits assumed): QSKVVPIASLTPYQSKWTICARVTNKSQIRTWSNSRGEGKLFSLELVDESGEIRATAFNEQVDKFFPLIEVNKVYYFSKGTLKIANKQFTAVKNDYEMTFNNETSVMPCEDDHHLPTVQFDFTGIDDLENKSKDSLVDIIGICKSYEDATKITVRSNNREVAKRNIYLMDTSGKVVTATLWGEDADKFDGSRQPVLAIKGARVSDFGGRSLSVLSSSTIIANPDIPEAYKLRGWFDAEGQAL
T1 sequence (P27694 whole entry): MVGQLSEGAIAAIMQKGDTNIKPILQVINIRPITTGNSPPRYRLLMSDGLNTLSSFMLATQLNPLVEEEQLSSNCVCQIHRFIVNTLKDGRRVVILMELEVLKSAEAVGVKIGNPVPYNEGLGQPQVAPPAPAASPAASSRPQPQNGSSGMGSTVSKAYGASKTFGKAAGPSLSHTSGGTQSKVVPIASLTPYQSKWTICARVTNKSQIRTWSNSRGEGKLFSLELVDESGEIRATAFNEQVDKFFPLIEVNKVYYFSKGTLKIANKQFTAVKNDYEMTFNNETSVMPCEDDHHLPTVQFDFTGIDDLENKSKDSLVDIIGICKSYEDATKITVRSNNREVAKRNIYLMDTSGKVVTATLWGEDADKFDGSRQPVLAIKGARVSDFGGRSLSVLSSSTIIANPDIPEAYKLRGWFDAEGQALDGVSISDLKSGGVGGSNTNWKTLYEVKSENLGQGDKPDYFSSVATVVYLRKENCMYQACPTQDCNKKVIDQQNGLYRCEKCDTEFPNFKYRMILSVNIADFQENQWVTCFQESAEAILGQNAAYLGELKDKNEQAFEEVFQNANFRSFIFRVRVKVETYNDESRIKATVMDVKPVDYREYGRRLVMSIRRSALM
T1 sequence (P15927 whole entry partner): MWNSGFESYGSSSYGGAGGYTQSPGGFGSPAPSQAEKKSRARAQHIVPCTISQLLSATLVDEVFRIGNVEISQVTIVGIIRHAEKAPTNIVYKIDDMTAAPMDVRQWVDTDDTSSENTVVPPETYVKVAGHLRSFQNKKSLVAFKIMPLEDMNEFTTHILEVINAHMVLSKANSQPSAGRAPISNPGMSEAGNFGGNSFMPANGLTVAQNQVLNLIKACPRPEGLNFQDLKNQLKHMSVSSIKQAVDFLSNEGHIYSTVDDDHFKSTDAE
T1 sequence (P35244 whole entry partner): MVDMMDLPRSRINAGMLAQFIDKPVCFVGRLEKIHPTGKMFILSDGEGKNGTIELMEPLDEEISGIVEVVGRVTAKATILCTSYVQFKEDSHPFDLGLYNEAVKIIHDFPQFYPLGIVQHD
T3 sequence (P0AGE0 2-178): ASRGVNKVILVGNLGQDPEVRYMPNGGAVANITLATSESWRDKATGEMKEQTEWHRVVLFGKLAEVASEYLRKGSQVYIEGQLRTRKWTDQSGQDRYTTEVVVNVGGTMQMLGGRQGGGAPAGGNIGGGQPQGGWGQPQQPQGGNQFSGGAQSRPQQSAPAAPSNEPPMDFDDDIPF

For `O=C1OC(=O)[C@H]2C3C=CC(CC3)[C@@H]12` [CheSS19], the “Inhibition of full-length RPA DNA binding” value in assay [1] is recorded as “potent inhibitory activity”. For the same molecule, the “Inhibition of DBD-A/B DNA binding” value on RPA DBD-A/B [2] is on record as “potent inhibitory activity; also recorded: inhibits the DNA binding activity of the DBD-A/B construct with similar potency to the heterotrimeric RPA preparation”. Moreover, at RPA DBD-A/B [3], the “Reversibility of DBD-A/B inhibition” value was “inhibiting DBD-A/B in an irreversible manner”. Besides, the “Effect on EcSSB ssDNA binding” value on EcSSB is given as “unaffected”. The “Reversibility of full-length RPA inhibition (earlier report)” value in assay [4] is “irreversible”.

As to `CCOc1ccc2cc(C3CC(c4ccc(Br)cc4)=NN3C(=O)CCC(=O)O)c(Cl)nc2c1` (stereo not shown) [TDRL-505], in assay [5], the “Mode of cell death (earlier report)” value is reported as “cytotoxic via a non-apoptotic pathway”.

For the molecule `N.N.[Cl][Pt][Cl]` [cisplatin, cis-diamminedichloroplatinum (II)], in the assay on p21, the “p21 mRNA expression, single agent” value was “dramatic increase in p21 mRNA expression”.
